The test system of this experiment is snap bean seedling diseases (Pythium spp., Rhizoctonia solani, Macrophomina phaseolina, and Fusarium spp.). Briefly: Spring-planted 2013 snap bean field test. The conditions noted are these: in vivo.

As for `O.O.O=C([O-])c1ccccc1O.O=C([O-])c1ccccc1O.[Ca+2]` [calcium salicylate, calcium salicylate dihyrate], the “Overall snap bean yield” value is “highest”, the “Seedling emergence 15 days after planting (May 8)” value is reported as “greatest” and the healthy plant stands result is “highest”.
